Drawing on patent US9388172B2, “Substituted carbamate compounds” (Hoffmann-La Roche Inc., priority 2012, dated 2016), this text covers IC50 for 18 molecules.

Structures can show the parent of a compound that is named as a salt.

T1 sequence (O75762 whole entry): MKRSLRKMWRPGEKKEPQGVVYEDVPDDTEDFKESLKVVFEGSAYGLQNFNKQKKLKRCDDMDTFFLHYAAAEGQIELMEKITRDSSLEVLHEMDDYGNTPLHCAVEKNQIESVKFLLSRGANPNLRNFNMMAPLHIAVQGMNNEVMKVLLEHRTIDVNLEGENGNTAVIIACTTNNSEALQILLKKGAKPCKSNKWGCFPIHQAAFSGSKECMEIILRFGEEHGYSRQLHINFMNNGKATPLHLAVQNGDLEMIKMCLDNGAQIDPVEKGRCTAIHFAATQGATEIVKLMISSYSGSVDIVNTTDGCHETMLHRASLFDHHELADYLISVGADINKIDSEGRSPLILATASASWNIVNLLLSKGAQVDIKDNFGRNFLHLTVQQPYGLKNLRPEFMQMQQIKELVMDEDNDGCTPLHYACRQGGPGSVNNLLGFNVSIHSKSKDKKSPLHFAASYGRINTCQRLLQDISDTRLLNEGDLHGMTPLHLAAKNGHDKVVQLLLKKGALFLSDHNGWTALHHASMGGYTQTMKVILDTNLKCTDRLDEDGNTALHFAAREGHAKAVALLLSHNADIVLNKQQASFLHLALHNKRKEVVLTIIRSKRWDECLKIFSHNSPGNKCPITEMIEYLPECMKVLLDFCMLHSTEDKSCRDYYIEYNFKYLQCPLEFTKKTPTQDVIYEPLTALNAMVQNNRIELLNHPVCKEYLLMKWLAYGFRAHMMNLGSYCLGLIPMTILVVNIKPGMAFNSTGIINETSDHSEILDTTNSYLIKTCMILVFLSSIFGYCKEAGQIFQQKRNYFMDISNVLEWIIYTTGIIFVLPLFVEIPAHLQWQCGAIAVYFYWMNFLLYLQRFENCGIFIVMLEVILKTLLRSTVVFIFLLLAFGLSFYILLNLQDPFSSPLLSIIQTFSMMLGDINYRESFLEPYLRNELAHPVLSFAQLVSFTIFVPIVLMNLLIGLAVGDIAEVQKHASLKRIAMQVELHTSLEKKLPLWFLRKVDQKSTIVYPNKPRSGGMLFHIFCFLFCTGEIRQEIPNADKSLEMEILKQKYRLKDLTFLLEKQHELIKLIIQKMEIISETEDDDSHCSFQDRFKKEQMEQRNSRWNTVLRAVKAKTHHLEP

This test has as its target T1, hTRPA1 (Homo sapiens, UniProt O75762).
T1 construct: host or cells: CHO-K1 Tet-On HOMSA TRPA1 Clone 20 (Chinese Hamster Ovary cells, inducible expression)
The test can be described thus: ChanTest hTRPA1-CHO calcium flux dose response assay (FLIPR, cinnamaldehyde agonist). Format: cell-based. The following applies: CHO-K1 Tet-On hTRPA1 cells, 100 uM cinnamaldehyde agonist, 30 min compound preincubation. How it is done:
IC50 Determination of Exemplified Compounds Dose Response Assay: ChanTest hTRPA1-CHO Stably Transfected Cell Line
CHO-K1 Tet-On HOMSA TRPA1 Clone 20
0.40 mg/ml Zeocin • The cell line doubling rate was ˜15 hours. […] Experiments were run at 24 hours post induction.
Plating Conditions CHOK1/TRPA1 Cells: • Harvested cells with 0.025% trypsin/EDTA. • Resuspended cells in growth media without selection antibiotics. • Measured cell density and diluted to 2.4×10^5 cells/ml in media containing 1 ug/ml Doxycycline Plate 25 ul/well into 384 well black/clear tissue culture-treated plates. • Incubated overnight at 37° C.
• Replacement Buffer: Hank's Balanced Salt Solution, 20 mM HEPES along with 0.005% BSA and 2× Probenecid • Dye Loading Buffer: Cal-3 NW Calcium dye was prepared by dissolving the contents of one vial with 500 ml Hank's Balanced Salt Solution containing 20 mM HEPES.
Control Compounds for CHOK1/TRPA1 Cells: • AP-18, stock 10 mM, prepare 3.5× compound dilution in a Compound Buffer (HBSS/20 mM HEPES/0.005% BSA)−final concentration 10 uM.
Preparation of Cinnamaldehyde (Agonist Addition): • FW=132.16 • Specific gravity=1.046 gm/cc • 1.32 gm/1.046 gm/cc=1.26 ml of stock • Add 1.74 ml DMSO=3.3 M stock • Working solution 4.5× (final 100 uM in Compound Buffer: HBSS/20 mM HEPES/0.005% BSA)
Compounds dilutions were prepared from 5 or 10 mM stock (100% DMSO): • Adjustments of volumes and concentrations were made at time of titration to reflect desired final assay concentrations. • Compounds were tested at either 20 μM three folds dilution 11 steps out or 30 μM two folds dilution 11 steps out. • 3 μl of diluted compound were transferred into Weidmann 384-well plate in duplicates side-by-side. • Compound plates were resuspended with 100 ul of HBSS/20 mM HEPES/0.005% BSA buffer (Compound Buffer): • column 1A-H: buffer/DMSO (bk) • column 2A-H: AP-18 (control antagonist for CHOK1 TRPA1 cells) • column 1I-P: ATP (control for CHOK1 teton cells) • column 2I-P: 2APB (control antagonist for CHOK1/TRPM8 cells).
Growth media was removed from the cell plates (20 ul) and 20 ul of the Replacement Buffer was added followed by addition of 25 ul of diluted dye. All three steps were performed using a Plate Washer BioTek 407. The plates were then incubated for 30′ at RT.
After incubation, both the cell and compound plates were brought to the FLIPR and 20 ul of the diluted compounds/antagonist/bk were transferred to the cell plates by the FLIPR. Plates were then incubated for 30′ at room temperature. After 30′ incubation, plates were returned to the FLIPR and 20 ul of 4.5× Cinnamaldehyde was added to the cell plates. During the compound addition as well as agonist addition, fluorescence readings were taken simultaneously from all 384 wells of the cell plate every 1.5 seconds. Five readings were taken to establish a stable baseline, then 20 ul of sample was rapidly (30 ul/sec) and simultaneously added to each well of the cell plate. The fluorescence was continuously monitored before, during and after sample/agonist addition for a total elapsed time of 100 seconds (compound addition) and 120 seconds (agonist addition). Responses (increase in peak fluorescence) in each well following agonist addition was determined. The initial fluorescence reading from each well, prior to ligand stimulation, was used a zero baseline value for the data from that well.
For `Fc1ccc(-c2nnc(CC(CN3CCCC(c4cccc(C(F)(F)F)c4)C3)C(F)(F)F)o2)cc1` (stereo not drawn) [Example 8, 1-{3,3,3-Trifluoro-2-[5-(4-fluorophenyl)-[1,3,4]oxadiazol-2-ylmethyl]-propyl}-3-(3-trifluoromethyl-phenyl)-piperidine hydrochloride], the IC50 worked out at 0.116 µM.

As to `Fc1ccc(-c2nnc(CC(CN3CCOC(c4ccc(C(F)(F)F)cc4)C3)C(F)(F)F)o2)cc1` (stereo not drawn) [Example 17, 4-{3,3,3-Trifluoro-2-[5-(4-fluoro-phenyl)-[1,3,4]oxadiazol-2-ylmethyl]-propyl}-2-(4-trifluoromethyl-phenyl)-morpholine hydrochloride], the IC50 worked out at 0.0621 µM.

Take `Fc1ccc(-c2nc(CC(CN3CCCC(c4cccc(C(F)(F)F)c4)C3)C(F)(F)F)no2)cc1` (stereo not drawn) [Example 15, 1-{3,3,3-Trifluoro-2-[5-(4-fluoro-phenyl)-[1,2,4]oxadiazol-3-ylmethyl]-propyl}-3-(3-trifluoromethyl-phenyl)-piperidine hydrochloride]: the IC50 worked out at 0.318 µM.

For the molecule `FC(F)(F)c1cccc(C2CCCN(CC(Cc3nnc(-c4ccc(Cl)cc4)o3)C(F)(F)F)C2)c1` (stereo not drawn) [Example 3, 1-{2-[5-(4-Chloro-phenyl)-[1,3,4]oxadiazol-2-ylmethyl]-3,3,3-trifluoro-propyl}-3-(3-trifluoromethyl-phenyl)-piperidine hydrochloride], the IC50 was determined as 0.702 µM.

As to `FC(F)(F)c1cccc(C2CCCN(CC(Cc3ncc(-c4ccccc4)[nH]3)C(F)(F)F)C2)c1` (stereo not drawn) [Example 5, 3-(3-Trifluoromethyl-phenyl)-1-[3,3,3-trifluoro-2-(5-phenyl-1H-imidazol-2-ylmethyl)-propyl]-piperidine hydrochloride], the half-inhibitory concentration (IC50) was determined as 11.2 µM.

As to `FC(F)(F)c1cccc(C2CCCN(CC(Cc3ncc(-c4ccc(Cl)cc4)o3)C(F)(F)F)C2)c1` (stereo not drawn) [Example 13, 1-{2-[5-(4-Chloro-phenyl)-oxazol-2-ylmethyl]-3,3,3-trifluoro-propyl}-3-(3-trifluoromethyl-phenyl)-piperidine hydrochloride], the IC50 was 7.27 µM.

For the molecule `Fc1ccc(-c2nnc(CC(CN3CCOC(c4cccc(C(F)(F)F)c4)C3)C(F)(F)F)o2)cc1` (stereo not drawn) [Example 12, 4-{3,3,3-Trifluoro-2-[5-(4-fluoro-phenyl)-[1,3,4]oxadiazol-2-ylmethyl]-propyl}-2-(3-trifluoromethyl-phenyl)-morpholine hydrochloride], the IC50 amounted to 0.112 µM.

On to `FC(F)(F)c1cccc(C2CCCN(CC(Cc3nnc(-c4cccc(Cl)c4)o3)C(F)(F)F)C2)c1` (stereo not drawn) [Example 9, 1-{2-[5-(3-Chloro-phenyl)-[1,3,4]oxadiazol-2-ylmethyl]-3,3,3-trifluoro-propyl}-3-(3-trifluoromethyl-phenyl)-piperidine hydrochloride], for which the IC50 is 9.11 µM.

In the case of `FC(F)(F)c1cccc(C2CCCN(CC(Cc3nc4ccc(Cl)cc4o3)C(F)(F)F)C2)c1` (stereo not drawn) [Example 4, 6-Chloro-2-{3,3,3-trifluoro-2-[3-(3-trifluoromethyl-phenyl)-piperidin-1-ylmethyl]-propyl}-benzooxazole hydrochloride], the IC50 is 12.3 µM.

For the molecule `Fc1ccc(-c2cnc(CC(CN3CCCC(c4cccc(C(F)(F)F)c4)C3)C(F)(F)F)[nH]2)cc1` (stereo not drawn) [Example 7, 1-{3,3,3-Trifluoro-2-[5-(4-fluoro-phenyl)-1H-imidazol-2-ylmethyl]-propyl}-3-(3-trifluoromethyl-phenyl)-piperidine hydrochloride], the IC50 was determined as 6.05 µM.

As to `FC(F)(F)c1cccc(C2CCCN(CC(Cc3nnc(-c4ccc(Cl)cn4)o3)C(F)(F)F)C2)c1` (stereo not drawn) [Example 11, 5-Chloro-2-(5-{3,3,3-trifluoro-2-[3-(3-trifluoromethyl-phenyl)-piperidin-1-ylmethyl]-propyl}-[1,3,4]oxadiazol-2-yl)-pyridine hydrochloride], the IC50 worked out at 30 µM.

On to `FC(F)(F)c1ccc(C2CN(CC(Cc3nnc(-c4ccc(Cl)cc4)o3)C(F)(F)F)CCO2)cc1` (stereo not drawn) [Example 18, 4-{2-[5-(4-Chloro-phenyl)-[1,3,4]oxadiazol-2-ylmethyl]-3,3,3-trifluoro-propyl}-2-(4-trifluoromethyl-phenyl)-morpholinehydrochloride], for which the IC50 is 0.267 µM.

For `FC(F)(F)c1cccc(C2CCCN(CC(Cc3nc(-c4ccc(Cl)cc4)no3)C(F)(F)F)C2)c1` (mixture of isomers) [Example 14, 1-{2-[3-(4-Chlorophenyl)-[1,2,4]oxadiazol-5-ylmethyl]-3,3,3-trifluoro-propyl}-3-(3-trifluoromethyl-phenyl)-piperidine hydrochloride], the half-inhibitory concentration (IC50) stood at 2.66 µM.

As to `Cc1ccc(-c2nnc(CC(CN3CCCC(c4cccc(C(F)(F)F)c4)C3)C(F)(F)F)o2)cn1` (stereo not drawn) [Example 10, 2-Methyl-5-(5-{3,3,3-trifluoro-2-[3-(3-trifluoromethyl-phenyl)-piperidin-1-ylmethyl]-propyl}-[1,3,4]oxadiazol-2-yl)-pyridine], the concentration for half-maximal inhibition (IC50) stood at 2.4 µM.

Regarding `FC(F)(F)c1cccc(C2CCCN(CC(Cc3ncc(-c4ccc(Cl)cc4)[nH]3)C(F)(F)F)C2)c1` (stereo not drawn) [Example 2, 1-{2-[5-(4-Chlorophenyl)-1H-imidazol-2-ylmethyl]-3,3,3-trifluoro-propyl}-3-(3-trifluoromethyl-phenyl)piperidine hydrochloride], the IC50 came to 3.7 µM.

`FC(F)(F)c1cccc(C2CCCN(CC(Cc3ncc(-c4cccc(Cl)c4)[nH]3)C(F)(F)F)C2)c1` (stereo not drawn) [Example 6, 1-{2-[5-(3-Chlorophenyl)-1H-imidazol-2-ylmethyl]-3,3,3-trifluoro-propyl}-3-(3-trifluoromethyl-phenyl)piperidine hydrochloride]: the 50% inhibitory concentration (IC50) was 2.26 µM.

Regarding `FC(F)(F)c1cccc(C2CN(CC(Cc3nnc(-c4ccc(Cl)cc4)o3)C(F)(F)F)CCO2)c1` (stereo not drawn) [Example 16, 4-{2-[5-(4-Chlorophenyl)-[1,3,4]oxadiazol-2-ylmethyl]-3,3,3-trifluoropropyl}-2-(3-trifluoromethyl-phenyl)-morpholine hydrochloride], the half-inhibitory concentration (IC50) worked out at 0.228 µM.

Take `FC(F)(F)c1cccc(C2CCCN(CC(Cc3nc4cc(Cl)ccc4[nH]3)C(F)(F)F)C2)c1` (stereo not drawn) [Example 1, 5-Chloro-2-{3,3,3-trifluoro-2-[3-(3-trifluoromethyl-phenyl)-piperidin-1-ylmethyl]-propyl}-1H-benzoimidazole hydrochloride]: the 50% inhibitory concentration (IC50) was found to be 6.72 µM.
